Results reported in ChEMBL document CHEMBL1128334, “X-ray crystal structure, partitioning behavior, and molecular modeling study of piracetam-type nootropics: insights into the pharmacophore” (J Med Chem, 1995).

experiment: Partition coefficient (logP); type: physicochemical; settings: octanol/water

Going from `O=C1CC2C(=O)NCC2CN1` (stereo in doubt; 2) to `CCOC(=O)C1CNC(=O)CC1C(=O)OCC` (stereo in doubt; 6), the logP rises from -2.11 to -0.03.

Compared with `O=C1CC2C(=O)NCC2CN1` (stereo in doubt; 3), `CCOC(=O)C1CNC(=O)CC1C(=O)OCC` (stereo in doubt; 7) is higher in logP: -2 for the first, 0.17 for the second.

same assay, conditions: octanol/water; read-out: logP

First: O=C1CCCCN1
Second: O=C1CCCN1 [2-PYRROLIDONE]
The logP of the first is higher: -0.47 for the first, -0.71 for the second.

Compared with `O=C1NCC[C@@H]2CNC(=O)[C@H]12`, `O=C1CCC2CCC(=O)N12` [ROLZIRACETAM] is higher in logP: -1.95 for the first, -1.11 for the second.

Molecule `NC(=O)CN1CCCC1=O` [PIRACETAM] has a logP of -1.54.
